These are literature values, as cited in the CATMoS acute toxicity set (Mansouri et al. 2021).

Structures are written as SMILES. Several values for one entry are separate records, joined by “and”; a condition that tells them apart may be missing. Identical values can stand only once.

Usually LD50 stands for the dose at which mortality reaches 50%.

The data set is described as follows: rat acute oral toxicity. The note with it: in vivo. The text has this:
[…]The data set underlying the modeling effort for this project was initially compiled by NICEATM and U.S. EPA’s CCTE. Briefly, LD50 data were collected from rat acute oral systemic toxicity tests, including limit tests, ranges/confidence intervals, and discrete LD50 values. The full data set included 21,200 LD50 entries for 15,688 substances. […] Data were reviewed to ensure that LD50 values with obvious errors in the extracted data such as unit conversion errors (e.g., comma and decimal separator misplacements) were either fixed or removed. After this review, 16,209 LD50 values remained. Many of the chemicals represented had multiple LD50 entries, requiring that a single representative value per Chemical Abstracts Service Registry Number (CASRN) identifier be defined to facilitate modeling efforts. Based on ATWG feedback and to define the representative LD50 as a protective value while accounting for the distribution across multiple LD50s, the median of the lowest quartile was computed using only discrete LD50 values (omitting limit test data and range and confidence interval data). A detailed summary of the data compilation is available online on the NICEATM webpage dedicated to the collaborative modeling project (NTP 2020).
[…][…] For categorical designations, limit test and range/confidence interval LD50 data were integrated wherever possible. As such, the number of chemicals with end point values/calls varies across the modeling end points (Table 3) based on whether chemicals had representative LD50 values and/or other data. If a chemical had both, the representative value was used to determine categorical calls rather than limit test data. Some data were useable only for certain end points and categories depending on the thresholds. For example, ranges that spanned multiple hazard categories were considered only for the binary (very toxic/nontoxic) end points and omitted from rendering a determination for hazard category assignment.
[…]The final data set comprising 11,992 chemicals was split into training and evaluation sets […], respectively. This process was performed semirandomly by ordering chemicals based on the five end points (categorical and continuous LD50 values) and partitioning every fourth record into the evaluation set accordingly. This approach was taken to ensure an equivalent distribution of the LD50 values and the different hazard categories between the training and the evaluation sets without supervised sampling of the chemicals based on structures (Figure 1A). The sources of the chemical structures were also kept equivalent between the two sets, with chemical structures obtained from DSSTox, being the highest quality, representing over 75% of each set (Figure 1B).
`O=C(O)C[C@H](NC(=O)COc1ccc(Cl)cc1Cl)C(=O)O`: the LD50 was 1000 mg/kg.

For `CC(C)CC(C)CC(=O)O` (stereo not given), the LD50 was 900 mg/kg.

As to `CCOc1ccc(C2(c3ccc(OCC)cc3)CC2(Cl)Cl)cc1`, the 50% lethal dose (LD50) was 755 mg/kg.

In the case of `Cl[Si](Cl)(Cl)C1CC=CCC1` (stereo not given), the LD50 was 2830 mg/kg.

`Clc1nc(Cl)c(Cl)c(Cl)c1Cl`: the LD50 was 435 mg/kg.

For the molecule `CCC(=O)OC(C)c1ccccc1` (stereo not given), the LD50 was 5200 mg/kg.

For `O=C(OCc1ccccc1)c1ccccc1O`, the LD50 is 2230 mg/kg.

On to `COc1ccc(S(=O)(=O)Nc2nnc(CC(C)C)s2)cc1`, for which the LD50 is 534 mg/kg.

With `Cc1ccc(Cl)cc1N`, the LD50 was 464 mg/kg.

Take `CCCCCCCCCCCOC(=O)Cc1ccc(N(CCCl)CCCl)cc1`: the LD50 was 50 mg/kg.

As to `Cc1cc(Cl)ccc1Cn1nc(C(=O)O)c2ccccc21`, the LD50 was 4000 mg/kg.

`CC12CC1(C)C(=O)N(c1cc(Cl)cc(Cl)c1)C2=O` (stereo not given): the median lethal dose (LD50) was 7000 mg/kg.

On to `CC(=O)OCCC(C)CC(C)(C)C` (stereo not given), for which the LD50 is 4250 mg/kg.

For the molecule `CC(=O)CNC(C)(C)Cc1ccccc1`, the LD50 was 225 mg/kg.

As to `OCC1OC(N2CCN(C3OC(CO)C(O)C(O)C3O)CC2)C(O)C(O)C1O` (stereo not given), the LD50 is 30000 mg/kg.

For `O=c1ncc2[nH]c(=O)[nH]c2[nH]1`, the LD50 was 1820 mg/kg.

As to `CCCCCCCCCCCCCC[N+](C)(C)Cc1ccccc1`, the LD50 was 426 mg/kg.

In the case of `CC1=NN(c2ccc(C)cc2)C(=O)C1`, the LD50 was 7450 mg/kg.

Take `Nc1ccc([N+](=O)[O-])c(Cl)n1`: the LD50 was 1780 mg/kg.

Take `NN=C(N)N`: the LD50 was 500 mg/kg.

Regarding `Cc1ccnc(SCCC(F)=C(F)F)n1`, the LD50 is 844 mg/kg.

`CC(=O)OCCCC(=O)CBr`: the LD50 is 600 mg/kg.

Regarding `Cc1c(F)c(F)c2nc(C(F)(F)F)[nH]c2c1F`, the LD50 was 3.94 mg/kg.

Regarding `CC(Cl)(C=O)CCl` (stereo not given), the LD50 was 1620 mg/kg.

For `C[N+]1(C)CCC(OC(=O)C(O)(c2ccccc2)c2cccs2)C1` (stereo not given), the LD50 was 3580 mg/kg.

On to `Nc1c(Cl)cc(C(=O)NC2CC2)cc1Cl`, for which the LD50 is 170 mg/kg.

With `O=C(O)c1cc(I)cc(I)c1I`, the LD50 was 2200 mg/kg and 813 mg/kg.

In the case of `OCCNC1CCCCC1`, the LD50 is 38300 mg/kg.

For the molecule `c1cncc(C2=NCCC2)c1`, the LD50 is 1880 mg/kg.

With `CC[C@H](OC(C)=O)C(C[C@H](C)N(C)C)(c1ccccc1)c1ccccc1`, the LD50 was 29 mg/kg.

With `Cc1ccc2oc(=O)ccc2c1`, the LD50 was 1680 mg/kg.

In the case of `CC(=O)ON(C(=O)OC(C)C)c1ccccc1`, the LD50 was 3400 mg/kg.

Take `O=C(O)C(F)(F)C(F)(F)C(F)(F)C(F)(F)C(F)(F)C(F)F`: the LD50 was 1440 mg/kg.

As to `CS(=O)(=O)c1nnc(C(F)(F)F)s1`, the LD50 is 312 mg/kg.

As for `O=C(O)c1ccccc1OP(=O)(O)O`, the LD50 is 1100 mg/kg.

With `O=C(O)C1=Cc2sc(Cn3ccnc3)cc2CC1`, the LD50 is 1880 mg/kg.

Regarding `CN(C)C(=S)N(C)C`, the LD50 is 920 mg/kg.

As to `CCC/C=C/C=O`, the LD50 is 780 mg/kg.

On to `COc1ccc2c(=O)c(C)c(-c3ccccc3)oc2c1CN(C)C`, for which the LD50 is 40 mg/kg and 14 mg/kg.

Turning to `CCCCC(CC)COS(=O)(=O)O` (stereo not given), the LD50 is 4120 mg/kg.

Regarding `CC[P+](c1ccccc1)(c1ccccc1)c1ccccc1`, the LD50 was 200 mg/kg and 79 mg/kg.

Regarding `COc1ccccc1-c1ccccc1`, the LD50 is 3600 mg/kg.

`CC(C)(C)[C@@H](O)/C(=C\c1ccc(Cl)cc1Cl)n1cncn1`: the LD50 is 474 mg/kg.

As for `CCCCCOC(C[n+]1ccccc1)c1ccc(C2CCCC2)cc1` (stereo not given), the LD50 is 250 mg/kg.

Consider `CC(C)(C)CON=CC1C(C(=O)OC(C#N)c2cccc(Oc3ccccc3)c2)C1(C)C` (stereo not given), for which the LD50 was 143 mg/kg.

On to `O=C1NCCCN1Cc1ccc(Cl)c(Cl)c1`, for which the LD50 was 815 mg/kg.

Regarding `CC(=C\c1ccccc1)/C=C1/SC(=S)N(CC(=O)O)C1=O`, the LD50 was 5.3 mg/kg.

Consider `CCCCCOc1ccc(C2SC(=O)NC2=O)cc1OCC` (stereo not given), for which the LD50 was 4330 mg/kg.

`CCC(c1ccccc1)c1c(O)c2ccccc2oc1=O` (stereo not given): the LD50 was 200 mg/kg.

For the molecule `COC(F)=C(C(F)(F)F)C(F)(F)F`, the LD50 was 1070 mg/kg.

Turning to `Clc1ccc(N2CCN(C/C=C/c3ccccc3)CC2)nn1`, the LD50 is 483 mg/kg.

In the case of `CS(=O)(=O)F`, the LD50 is 2 mg/kg.

With `CC[n+]1c(C=C2Sc3ccccc3N2C)ccc2ccccc21`, the LD50 was 2240 mg/kg.

For `CC(=O)CCc1ccc(-c2ccccc2)cc1`, the LD50 was 1030 mg/kg.

`C=CC(=O)N1CN(C(=O)C=C)CN(C(=O)C=C)C1`: the LD50 was 350 mg/kg.
